According to the supplement of paper PMC10331698:
± gives the standard deviation of the averaged measurements.

How the values were obtained:
Experiment in all cases: level (log10 ratio to DMSO vehicle control); higher = higher biomarker level / cell amount than vehicle control
Details in all cases: in DMSO
[1] = compound: CC(C)(C)C(=O)CC(=O)C(F)(F)C(F)(F)C(F)(F)F [(Heptafluorobutanoyl)pivaloylmethane]
Experimental: (§1)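 BioMAP Diversity Plus panel of 12 human primary cell co-culture systems (3C, 4H, LPS, SAg, BT, BF4T, BE3C, CASM3C, HDF3CGF, KF3CT, MyoF, Mphg). Compounds were added 1 h before stimulation and left for 24 h (MyoF 48 h; BT 72 h for soluble read-outs or 6 d for IgG). Biomarkers were read by ELISA, cytotoxicity by SRB, PBMC viability and proliferation by Alamar Blue. Each well value was divided by the mean of 8 DMSO control wells on the same plate and log10 transformed; duplicate blinded samples were tested at 4 concentrations.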

Perfluorooctanamidine = compound: N=C(N)C(F)(F)C(F)(F)C(F)(F)C(F)(F)C(F)(F)C(F)(F)C(F)(F)F [Perfluorooctanamidine]
Experimental: as §1

[2] = compound: CNS(=O)(=O)C(F)(F)C(F)(F)C(F)(F)C(F)(F)C(F)(F)C(F)(F)C(F)(F)C(F)(F)F [N-Methylperfluorooctanesulfonamide]
Experimental: as §1

Test System | level (log10) ([1]; 6700 nM) | level (log10) ([1]; 20000 nM) | level (log10) ([1]; 60000 nM) | level (log10) (Perfluorooctanamidine; 6700 nM) | level (log10) (Perfluorooctanamidine; 20000 nM) | level (log10) (Perfluorooctanamidine; 60000 nM) | level (log10) ([2]; 6700 nM) | level (log10) ([2]; 20000 nM) | level (log10) ([2]; 60000 nM)
3C:CD87/uPAR | -0.0255 ± 0.056 | -0.0435 ± 0.026 | -0.0255 ± 0.033 | 0.0265 ± 0.059 | 0.0135 ± 0.028 | 0.042 | -0.0125 ± 0.059 | -0.052 ± 0.011 | -0.0055 ± 0.032
3C:CXCL8/IL-8 | -0.015 ± 0.011 | -0.007 ± 0.045 | 0.016 ± 0.079 | 0.018 ± 0.011 | 0.022 ± 0.0085 | 0.08 | -0.0035 ± 0.0078 | 0.0575 ± 0.012 | 0.064 ± 0.0028
3C:CXCL9/MIG | -0.007 ± 0.016 | -0.0045 ± 0.013 | 0.004 ± 0.0071 | 0.007 ± 0.0071 | -0.0165 ± 0.0035 | 0.005 | 0.001 ± 0.0014 | -0.0075 ± 0.011 | 0.022 ± 0.0057
3C:HLA-DR | -0.0205 ± 0.013 | -0.0285 ± 0.005 | -0.092 ± 0.035 | 0.0025 ± 0.016 | -0.0295 ± 0.0064 | -0.035 | -0.0605 ± 0.012 | -0.102 ± 0.016 | -0.072 ± 0.028
3C:Proliferation | -0.0155 ± 0.054 | -0.044 ± 0.033 | -0.379 ± 0.24 | -0.0395 ± 0.018 | -0.054 ± 0.028 | -0.194 | -0.024 ± 0.02 | -0.125 ± 0.041 | -0.338 ± 0.16
3C:SRB | -0.001 ± 0.0057 | -0.003 ± 0.0071 | -0.061 ± 0.075 | 0.008 ± 0.016 | 0.0195 ± 0.019 | -0.054 | 0.0145 ± 0.022 | -0.031 ± 0.0028 | -0.0675 ± 0.028
4H:CCL2/MCP-1 | -0.0085 ± 0.012 | -0.006 ± 0.018 | -0.0195 ± 0.059 | 0.0095 ± 0.011 | -0.0055 ± 0.0064 | 0.061 | 0.002 ± 0.017 | -0.064 ± 0.017 | -0.103 ± 0.027
4H:CCL26/Eotaxin-3 | -0.002 ± 0.0014 | 0.004 ± 0.0057 | 0.0145 ± 0.016 | -0.006 ± 0.0042 | -0.033 ± 0.0042 | -0.118 | -0.0005 ± 0.018 | -0.0415 ± 0.032 | -0.0675 ± 0.025
4H:CD62P/P-selectin | -0.045 ± 0.089 | -0.032 ± 0.078 | -0.076 ± 0.16 | -0.0165 ± 0.012 | -0.007 ± 0.0085 | -0.032 | 0.0265 ± 0.011 | -0.0345 ± 0.011 | -0.0685 ± 0.0092
4H:CD87/uPAR | -0.005 ± 0.057 | -0.0135 ± 0.036 | 0.016 ± 0.12 | 0.0455 ± 0.097 | 0.055 ± 0.028 | 0.146 | -0.012 ± 0.12 | -0.0565 ± 0.071 | -0.046 ± 0.044
4H:CD106/VCAM-1 | -0.0175 ± 0.019 | 0.021 ± 0.045 | -0.032 ± 0.03 | 0.0015 ± 0.011 | -0.028 ± 0.016 | -0.132 | 0 ± 0.0014 | 0.015 ± 0.0042 | -0.0435 ± 0.032
4H:SRB | -0.007 ± 0.0014 | -0.005 ± 0.0071 | -0.0095 ± 0.016 | 0.0035 ± 0.0021 | -0.006 ± 0.0071 | -0.029 | -0.0045 ± 0.0092 | -0.041 ± 0.0014 | -0.0635 ± 0.054
4H:VEGFR2 | 0 ± 0.011 | -0.012 ± 0.0071 | -0.0105 ± 0.032 | -0.0135 ± 0.023 | -0.023 ± 0.025 | 0.064 | -0.0425 ± 0.032 | -0.096 ± 0.0085 | -0.0995 ± 0.00071
BE3C:CD54/ICAM-1 | -0.0055 ± 0.005 | -0.008 ± 0.0014 | -0.0185 ± 0.011 | -0.017 ± 0.0028 | -0.019 ± 0.0057 | 0.027 | 0.0055 ± 0.0021 | 0.0255 ± 0.0021 | 0.016 ± 0.0071
BE3C:CD87/uPAR | 0.0035 ± 0.032 | 0.0235 ± 0.0078 | -0.0045 ± 0.005 | -0.001 ± 0.014 | -0.0035 ± 0.057 | 0.083 | 0.0125 ± 0.015 | 0.0575 ± 0.061 | 0.083 ± 0.011
BE3C:CXCL8/IL-8 | -0.0095 ± 0.018 | -0.015 ± 0.021 | -0.017 ± 0.076 | 0.029 ± 0.042 | -0.026 ± 0.061 | -0.034 | -0.112 ± 0.0021 | -0.118 ± 0.0042 | -0.2 ± 0.078
BE3C:CXCL9/MIG | -0.0045 ± 0.0035 | -0.0025 ± 0.0064 | -0.0005 ± 0.0064 | 0.0135 ± 0.018 | 0.0085 ± 0.0092 | 0.037 | 0.0125 ± 0.016 | 0.009 ± 0.018 | 0.021 ± 0.028
BE3C:CXCL10/IP-10 | 0.006 ± 0.024 | -0.0025 ± 0.022 | -0.0055 ± 0.019 | 0.0045 ± 0.023 | -0.0055 ± 0.0035 | 0.003 | -0.0415 ± 0.026 | -0.0475 ± 0.0064 | -0.0795 ± 0.049
BE3C:CXCL11/I-TAC | -0.0005 ± 0.04 | 0.01 ± 0.037 | 0.024 ± 0.028 | -0.0055 ± 0.0078 | -0.014 ± 0.016 | -0.014 | -0.03 ± 0.0099 | -0.0165 ± 0.018 | -0.043 ± 0.0028
BE3C:EGFR | 0.0095 ± 0.016 | -0.0055 ± 0.023 | -0.0175 ± 0.00071 | -0.009 ± 0.0014 | -0.013 ± 0.014 | -0.022 | 0.001 ± 0.0057 | -0.0005 ± 0.0064 | -0.0305 ± 0.026
BE3C:HLA-DR | 0.0115 ± 0.0021 | 0.01 ± 0.0042 | -0.017 ± 0.0057 | -0.0015 ± 0.018 | -0.003 ± 0.021 | -0.01 | -0.0225 ± 0.0064 | -0.0445 ± 0.012 | -0.039 ± 0.041
BE3C:IL-1alpha | -0.0015 ± 0.021 | -0.0035 ± 0.0035 | -0.003 ± 0.021 | 0.0065 ± 0.026 | 0.002 ± 0.0028 | 0.047 | 0.0325 ± 0.005 | 0.042 ± 0.013 | 0.0695 ± 0.005
BF4T:CCL2/MCP-1 | -0.0085 ± 0.0064 | 0.004 ± 0.038 | -0.223 ± 0.34 | 0.031 ± 0.0099 | 0.025 ± 0.045 | 0.06 | -0.022 ± 0.011 | -0.049 ± 0.025 | -0.0785 ± 0.083
BF4T:CCL26/Eotaxin-3 | 0.009 ± 0.048 | -0.0205 ± 0.032 | -0.0065 ± 0.0064 | 0.0375 ± 0.044 | -0.0585 ± 0.026 | -0.106 | -0.203 ± 0.005 | -0.199 ± 0.015 | -0.196 ± 0.047
BF4T:CD54/ICAM-1 | -0.006 ± 0.0014 | -0.0145 ± 0.005 | -0.0155 ± 0.015 | -0.001 ± 0.0085 | -0.006 ± 0.017 | 0.039 | 0.009 ± 0.024 | 0.013 ± 0.0085 | 0.028 ± 0.011
BF4T:CD90 | -0.0065 ± 0.012 | -0.0015 ± 0.0035 | 0.004 ± 0.0028 | 0.0025 ± 0.015 | -0.0115 ± 0.005 | 0.042 | -0.006 ± 0.0042 | -0.005 | -0.0065 ± 0.0078
